Molecules are shown by their SMILES.

Experimental findings from patent US6613352B2, “Low-rigidity liposomal formulation” (Universite de Montreal, priority 1999, dated 2003) are described below.

This assay has as its system Xanthomonas maltophilia. Briefly: In vitro bactericidal activity, viable bacterial counts in proteose peptone. The format is cell-based. The conditions noted are these: free tobramycin 3,12 μg/ml, entrapped tobramycin 3,08 μg/ml, MIC >5 μg/ml. As for the experimental part:
To culture tubes containing proteose peptone (29 ml) a minimal number of 10^8 CFU of bacteria in logarithmic phase (1 ml) and of one of the following preparations (100 μl) were added at time zero: free tobramycin, control liposomes or PBS. Experiments were done in triplicate. At times 1, 3, 6, and 16 hours following the addition of antibiotic or controls, 2 ml of samples were collected and serial 10-fold dilutions were made and spread in triplicate on proteose peptone agar plates for gram negative strains and on […] for S. aureus. CFU were counted after 24-hour and 48-hourS incubations at 37° C. under 5% CO2. Counts were expressed in log CFU per ml of culture media.

With `NC[C@H]1O[C@H](O[C@H]2[C@H](O)[C@@H](O[C@H]3O[C@H](CO)[C@@H](O)[C@H](N)[C@H]3O)[C@H](N)C[C@@H]2N)[C@H](N)C[C@@H]1O` [Free tobramycin, tobramycin], the Viable bacterial counts is, setting by setting: (0 h) 3.7 × 10^10 cfu; (1 h) 3.00 × 10^12 cfu; (3 h) 8.20 × 10^14 cfu; (6 h) 7.80 × 10^16 cfu.
